The values that follow come from ChEMBL document CHEMBL1201862, “PubChem BioAssay data set” (2004).

In assay [1] the target is T1, Kappa-type opioid receptor (Homo sapiens, UniProt P41145). Briefly: SAR analysis of small molecule agonists of the kappa opioid receptor via a luminescent beta-arrestin assay - Set 3. [Related pubchem assays (depositor defined):AID1777, AID1785, AID1786, AID1966, AID2133, AID2136, AID2284, AID2500]. Type of assay: functional.
A further assay concerns the target Exodeoxyribonuclease V (Escherichia coli (strain K12), UniProt P04993+P07648+P08394). The assay is described as follows: E. coli RecBCD inhibitors, dose response, counter-screen for AddAB inhibitor project, absorbance, V66 E. coli, mutant T4 phage (AID 492957). Type of assay: functional, cell-based, Escherichia coli str. K-12 substr. MG1655. Background: Counterscreens check selectivity or assay interference.

A short description of assay [2]: Counterscreen for AddAB inhibitors: absorbance-based bacterial cell-based high throughput dose response assay for inhibitors of bacterial viability. [Related pubchem assays (depositor defined):AID435030, AID449728, AID449731, AID488942, AID488955, AID488956]. Type of assay: functional.
For the next assay, the target named is SUMO E1/E2 (Homo sapiens, UniProt P63279+Q9UBE0+Q9UBT2). The assay is described as follows: SAR analysis of SUMOylation using HTRF in an in-Vitro dose response assay. [Related pubchem assays (depositor defined):AID2006, AID2011, AID2018, AID2069, AID2658]. Type of assay: functional. (In TR-FRET formats the signal depends on donor and acceptor labels being close together.)

Assay [3] addresses T2, Voltage-gated N-type calcium channel alpha-1B subunit/Amyloid beta A4 precursor protein-binding family A member 1 (Homo sapiens, UniProt Q00975+Q02410). Briefly: disruptors of Mint-PDZ/N-type channel peptide interaction – biochemical, HTRF, set 2, SAR follow-up (AID 434980). Type of assay: functional.
Assay [4] has as its target T2, Voltage-gated N-type calcium channel alpha-1B subunit/Amyloid beta A4 precursor protein-binding family A member 1. The assay is described as follows: disruptors of Mint-PDZ/N-type channel peptide interaction – biochemical, HTRF, SAR follow-up (AID 2489). The format is functional.
In assay [5] the target is T3, Delta-type opioid receptor (Homo sapiens, UniProt P41143). Briefly: HTS Image-Based Screen for Antagonists of the DOR Receptor. [Related pubchem assays (depositor defined):AID1777, AID1785, AID1786, AID2133]. The format is functional.
T3 sequence (P41143 whole entry): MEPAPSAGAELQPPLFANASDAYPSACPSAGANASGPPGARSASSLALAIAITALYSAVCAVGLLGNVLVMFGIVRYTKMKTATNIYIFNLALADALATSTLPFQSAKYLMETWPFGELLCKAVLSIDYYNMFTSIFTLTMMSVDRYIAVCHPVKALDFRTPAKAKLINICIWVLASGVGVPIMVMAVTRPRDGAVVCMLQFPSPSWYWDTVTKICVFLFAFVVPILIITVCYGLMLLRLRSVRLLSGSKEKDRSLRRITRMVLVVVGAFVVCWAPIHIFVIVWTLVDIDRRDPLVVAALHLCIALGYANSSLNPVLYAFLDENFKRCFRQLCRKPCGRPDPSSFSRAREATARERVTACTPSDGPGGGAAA
The target in assay [6] is T4, Mu-type opioid receptor (Homo sapiens, UniProt P35372). The assay is described as follows: HTS Image-Based Screen for Agonists of the MOR Receptor. [Related pubchem assays (depositor defined):AID1777, AID1785, AID1786, AID2133]. Type of assay: functional.
T4 sequence (P35372 whole entry): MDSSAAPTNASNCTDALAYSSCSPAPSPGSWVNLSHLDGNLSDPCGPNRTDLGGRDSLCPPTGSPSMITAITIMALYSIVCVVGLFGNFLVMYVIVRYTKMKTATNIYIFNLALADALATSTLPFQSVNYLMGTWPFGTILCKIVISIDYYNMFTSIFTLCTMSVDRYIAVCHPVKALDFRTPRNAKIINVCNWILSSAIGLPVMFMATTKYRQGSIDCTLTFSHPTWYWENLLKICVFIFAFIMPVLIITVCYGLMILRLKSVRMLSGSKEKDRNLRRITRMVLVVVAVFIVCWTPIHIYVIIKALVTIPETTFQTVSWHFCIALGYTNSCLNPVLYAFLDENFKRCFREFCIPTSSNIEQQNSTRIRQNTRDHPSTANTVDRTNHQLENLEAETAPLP
Assay [7] deals with Neuropeptide Y receptor type 1 (Homo sapiens, UniProt P25929). The format is functional.
The target of assay [8] is T3, Delta-type opioid receptor. Briefly: HTS Image-Based Screen for Agonists of the DOR Receptor. [Related pubchem assays (depositor defined):AID1777, AID1786, AID2133]. The format is functional.
Assay [9] addresses Neuropeptide Y receptor type 2 (Homo sapiens, UniProt P49146). Type of assay: functional, cell-based.
The target in assay [10] is T1, Kappa-type opioid receptor. The format is functional.
Assay [11] addresses T1, Kappa-type opioid receptor. The format is functional. The source holds these as a separate data set.
Assay [12] deals with T1, Kappa-type opioid receptor. Briefly: SAR analysis of small molecule agonists of the kappa opioid receptor via a luminescent beta-arrestin assay. [Related pubchem assays (depositor defined):AID1777, AID1786, AID1966, AID2133, AID2136, AID2348, AID2352, AID2357, AID2359, AID2370, AID2420, AID2478, AID2491, AID2492, AID2493, AID2497, AID2498, AID2500, AID449737, AID488822, AID488842]. The format is functional.

For assay [13], the target named is T4, Mu-type opioid receptor. The assay is described as follows: MOR agonists by imaging, SAR follow-up, image-based (AID 2352). Type of assay: functional.
Assay [14] has as its target T3, Delta-type opioid receptor. Briefly: DOR agonists, SAR follow-up, image-based (AID 2370). The format is functional.
The target of assay [15] is T1, Kappa-type opioid receptor. The assay is described as follows: KOR antagonists by imaging, SAR follow-up, image-based (AID 2348). Type of assay: functional.
The target of assay [16] is T4, Mu-type opioid receptor. Briefly: MOR antagonists, SAR follow-up, image-based (AID 2420).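 Also: compounds added before stimulation of receptor with agonist DAMGO.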 Type of assay: functional.
Assay [17] deals with T5, Heat shock factor protein 1 (Mus musculus, UniProt P38532).
T5 sequence (P38532 whole entry): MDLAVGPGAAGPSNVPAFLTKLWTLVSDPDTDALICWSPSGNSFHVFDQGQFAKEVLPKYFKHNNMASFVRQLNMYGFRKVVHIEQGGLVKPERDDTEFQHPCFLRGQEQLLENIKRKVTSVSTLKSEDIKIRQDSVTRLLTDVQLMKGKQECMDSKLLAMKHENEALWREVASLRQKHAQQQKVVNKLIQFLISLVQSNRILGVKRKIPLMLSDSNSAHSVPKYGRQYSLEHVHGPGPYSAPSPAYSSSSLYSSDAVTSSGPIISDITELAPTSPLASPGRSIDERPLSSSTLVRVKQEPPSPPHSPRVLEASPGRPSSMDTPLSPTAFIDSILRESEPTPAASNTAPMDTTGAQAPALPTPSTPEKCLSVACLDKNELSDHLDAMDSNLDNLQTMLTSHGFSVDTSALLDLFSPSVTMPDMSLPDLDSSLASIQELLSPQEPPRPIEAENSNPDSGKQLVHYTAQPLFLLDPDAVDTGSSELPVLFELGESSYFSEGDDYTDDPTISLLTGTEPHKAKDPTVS
Briefly: HSF1 potentiators in luciferase reporter cells, confirmation, cell-based, NIH3T3, luminescence, dose retest (AID 435004).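 Also: stress induced by proteasome inhibitor MG132 added 30 min after compound; luciferase reporter driven by HSF1 response element in NIH3T3 cells; actives raise luminescence as potentiators of the MG132 stress response.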 The format is functional. A general note: In a reporter assay the amount or activity of a reporter protein is the signal.

The target of assay [18] is T1, Kappa-type opioid receptor. Briefly: KOR agonist analogs, imaging readout, SAR follow-up, image-based (AID 2359). Type of assay: functional.
In assay [19] the target is T3, Delta-type opioid receptor. The assay is described as follows: DOR antagonists, SAR follow-up, image-based (AID 2357). The format is functional.

Broadly, the EC50 is the midpoint of the concentration-response curve. Broadly, the IC50 is the concentration that inhibits the measured activity by half.

Active and inactive are the calls of the source. Some results are limits rather than exact numbers.

T1 sequence (P41145 whole entry): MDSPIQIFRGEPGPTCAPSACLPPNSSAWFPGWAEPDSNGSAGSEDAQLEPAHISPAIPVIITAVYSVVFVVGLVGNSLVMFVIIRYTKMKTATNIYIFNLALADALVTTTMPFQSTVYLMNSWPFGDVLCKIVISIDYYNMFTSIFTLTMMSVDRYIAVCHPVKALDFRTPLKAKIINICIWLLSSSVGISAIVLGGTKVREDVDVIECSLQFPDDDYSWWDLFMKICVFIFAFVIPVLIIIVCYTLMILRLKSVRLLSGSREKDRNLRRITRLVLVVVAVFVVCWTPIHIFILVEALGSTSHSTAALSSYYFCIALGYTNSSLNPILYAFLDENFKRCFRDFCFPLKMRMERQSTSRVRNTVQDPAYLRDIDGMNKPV
T2 sequence (Q00975 whole entry): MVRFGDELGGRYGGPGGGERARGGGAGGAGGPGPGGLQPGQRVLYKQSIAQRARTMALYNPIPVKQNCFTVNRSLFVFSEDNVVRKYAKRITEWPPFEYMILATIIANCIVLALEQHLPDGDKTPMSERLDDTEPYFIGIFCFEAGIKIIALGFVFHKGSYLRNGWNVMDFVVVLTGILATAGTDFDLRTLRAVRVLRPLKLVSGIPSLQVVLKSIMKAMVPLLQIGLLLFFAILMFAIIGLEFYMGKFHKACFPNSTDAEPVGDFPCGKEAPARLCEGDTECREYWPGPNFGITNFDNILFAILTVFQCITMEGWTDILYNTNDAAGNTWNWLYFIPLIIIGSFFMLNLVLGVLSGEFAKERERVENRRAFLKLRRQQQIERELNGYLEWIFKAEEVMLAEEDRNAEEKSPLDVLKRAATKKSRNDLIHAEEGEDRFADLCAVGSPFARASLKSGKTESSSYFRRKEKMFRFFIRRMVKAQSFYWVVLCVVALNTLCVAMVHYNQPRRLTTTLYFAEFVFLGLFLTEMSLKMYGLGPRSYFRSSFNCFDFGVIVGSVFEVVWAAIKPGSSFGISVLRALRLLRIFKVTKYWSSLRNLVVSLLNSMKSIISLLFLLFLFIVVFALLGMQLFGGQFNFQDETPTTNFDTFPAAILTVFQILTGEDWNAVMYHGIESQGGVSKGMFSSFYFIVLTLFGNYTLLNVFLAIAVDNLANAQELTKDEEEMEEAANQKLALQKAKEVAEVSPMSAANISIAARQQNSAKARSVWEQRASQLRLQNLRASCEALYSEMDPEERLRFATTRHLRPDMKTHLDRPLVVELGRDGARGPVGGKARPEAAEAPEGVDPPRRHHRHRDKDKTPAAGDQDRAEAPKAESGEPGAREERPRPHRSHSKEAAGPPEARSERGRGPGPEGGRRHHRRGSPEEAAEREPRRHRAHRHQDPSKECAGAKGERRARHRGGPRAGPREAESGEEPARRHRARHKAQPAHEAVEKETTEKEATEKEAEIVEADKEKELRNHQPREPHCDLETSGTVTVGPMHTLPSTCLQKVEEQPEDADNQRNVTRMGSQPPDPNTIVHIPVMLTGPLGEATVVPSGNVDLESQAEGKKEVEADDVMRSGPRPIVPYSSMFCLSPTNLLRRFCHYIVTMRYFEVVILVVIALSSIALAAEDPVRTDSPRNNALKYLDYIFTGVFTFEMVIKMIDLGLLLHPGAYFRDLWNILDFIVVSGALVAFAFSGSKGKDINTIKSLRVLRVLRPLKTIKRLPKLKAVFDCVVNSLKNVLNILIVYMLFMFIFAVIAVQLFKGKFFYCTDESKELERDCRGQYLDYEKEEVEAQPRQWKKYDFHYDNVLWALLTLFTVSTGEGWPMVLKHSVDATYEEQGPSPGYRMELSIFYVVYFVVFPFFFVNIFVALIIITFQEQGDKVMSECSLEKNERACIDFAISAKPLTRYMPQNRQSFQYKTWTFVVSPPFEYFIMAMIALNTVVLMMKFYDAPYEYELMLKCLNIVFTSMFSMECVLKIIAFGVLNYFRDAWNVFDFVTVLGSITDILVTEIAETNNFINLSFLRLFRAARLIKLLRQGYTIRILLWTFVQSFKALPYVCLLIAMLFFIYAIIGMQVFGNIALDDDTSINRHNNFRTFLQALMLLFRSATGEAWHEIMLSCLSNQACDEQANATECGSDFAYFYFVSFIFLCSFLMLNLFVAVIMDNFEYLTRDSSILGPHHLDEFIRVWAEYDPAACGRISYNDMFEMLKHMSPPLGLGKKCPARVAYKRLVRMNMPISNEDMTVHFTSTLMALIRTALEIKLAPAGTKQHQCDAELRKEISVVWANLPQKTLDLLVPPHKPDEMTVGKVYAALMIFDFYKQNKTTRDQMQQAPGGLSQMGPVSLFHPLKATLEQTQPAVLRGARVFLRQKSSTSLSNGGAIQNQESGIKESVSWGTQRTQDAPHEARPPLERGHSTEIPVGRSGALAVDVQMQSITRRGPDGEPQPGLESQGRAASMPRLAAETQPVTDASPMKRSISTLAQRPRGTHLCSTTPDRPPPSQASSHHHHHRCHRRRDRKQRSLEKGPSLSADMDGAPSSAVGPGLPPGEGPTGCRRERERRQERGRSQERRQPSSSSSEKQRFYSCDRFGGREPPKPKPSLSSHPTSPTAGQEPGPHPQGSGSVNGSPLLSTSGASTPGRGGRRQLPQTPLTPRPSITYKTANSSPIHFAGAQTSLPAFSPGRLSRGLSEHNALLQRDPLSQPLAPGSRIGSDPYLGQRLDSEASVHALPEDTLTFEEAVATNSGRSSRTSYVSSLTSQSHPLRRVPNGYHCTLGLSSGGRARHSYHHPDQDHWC
T2 sequence (Q02410 whole entry): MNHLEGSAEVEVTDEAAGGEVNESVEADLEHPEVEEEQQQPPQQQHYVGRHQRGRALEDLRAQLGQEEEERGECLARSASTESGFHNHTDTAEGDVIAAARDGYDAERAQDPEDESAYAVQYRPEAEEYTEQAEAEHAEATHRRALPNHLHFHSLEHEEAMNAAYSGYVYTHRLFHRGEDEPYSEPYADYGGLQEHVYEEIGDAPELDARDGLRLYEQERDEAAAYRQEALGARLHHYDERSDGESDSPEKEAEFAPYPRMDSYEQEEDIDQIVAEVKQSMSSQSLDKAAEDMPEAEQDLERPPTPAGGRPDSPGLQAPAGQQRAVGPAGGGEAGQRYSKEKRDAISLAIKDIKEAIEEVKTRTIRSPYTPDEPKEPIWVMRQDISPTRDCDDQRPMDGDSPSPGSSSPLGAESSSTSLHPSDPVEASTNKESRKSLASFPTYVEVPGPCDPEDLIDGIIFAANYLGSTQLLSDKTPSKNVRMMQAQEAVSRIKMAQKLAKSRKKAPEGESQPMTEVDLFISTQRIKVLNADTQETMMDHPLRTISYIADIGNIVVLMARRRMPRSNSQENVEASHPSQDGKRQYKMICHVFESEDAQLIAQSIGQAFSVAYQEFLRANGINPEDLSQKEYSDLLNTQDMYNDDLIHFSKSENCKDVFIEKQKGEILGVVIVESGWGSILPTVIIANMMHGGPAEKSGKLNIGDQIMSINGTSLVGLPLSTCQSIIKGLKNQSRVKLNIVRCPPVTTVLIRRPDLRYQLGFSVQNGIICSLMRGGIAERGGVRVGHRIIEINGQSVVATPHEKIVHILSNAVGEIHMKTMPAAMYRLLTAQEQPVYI
Neuropeptide Y receptor type 2, sequence (P49146 whole entry): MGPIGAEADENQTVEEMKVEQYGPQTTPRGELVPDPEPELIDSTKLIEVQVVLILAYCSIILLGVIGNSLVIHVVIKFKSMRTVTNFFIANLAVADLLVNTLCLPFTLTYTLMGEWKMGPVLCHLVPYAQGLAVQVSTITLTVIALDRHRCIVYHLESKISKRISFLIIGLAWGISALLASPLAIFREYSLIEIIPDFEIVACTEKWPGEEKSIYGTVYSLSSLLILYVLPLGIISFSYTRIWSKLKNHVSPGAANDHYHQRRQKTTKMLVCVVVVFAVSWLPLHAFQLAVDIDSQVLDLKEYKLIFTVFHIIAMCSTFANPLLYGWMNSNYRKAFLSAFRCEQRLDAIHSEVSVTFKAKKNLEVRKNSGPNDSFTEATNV

As for `Brc1ccc(CSc2nnc(-c3ccncc3)n2Cc2ccco2)cc1`, the EC50 in assay [1] was > 20 µM (inactive).

For `O=C(CSc1nc2ccccc2o1)Nc1ccc(N2CCOCC2)cc1`, the IC50 (on Exodeoxyribonuclease V; in [2]) was > 119 µM (inactive) in each case.

On to `O=C(OCC(=O)N1CCc2ccccc2C1)c1cc(-c2ccco2)nc2ccccc12`, for which the IC50 was 3.76 µM (active) on SUMO E1/E2, 10.2 µM (active) in assay [3] and > 56.8 µM (inactive) in [4].

On to `Brc1ccc(CSc2nnc(-c3ccccn3)n2Cc2ccco2)cc1`, for which the IC50 in assay [5] was > 32 µM (inactive); in assay [7], 7.44 µM (active); in [9], 8.06 µM (active); in [15], > 32 µM (inactive); on Mu-type opioid receptor [16] it was > 32 µM (inactive); in assay [19], > 32 µM (inactive). For the same compound, the EC50 at Mu-type opioid receptor [6] is > 32 µM (inactive); in assay [8], > 32 µM (inactive); in assay [10], 1.88 µM; in [11], 5.64 µM; in assay [12], 1.92 µM (active); at Mu-type opioid receptor [13], > 32 µM (inactive). Besides, the EC50 was > 32 µM (inactive) in [14], 36.6 µM (active) in [17] and 1.36 µM (active) in [18].
